Measurements from patent publication US20050197350A1, “Novel quinoline, tetrahydroquinazoline, and pyrimidine derivatives and methods of treatment related to the use thereof” (TAISHO PHARMACEUTICAL CO., LTD., priority 2003, published 2005).
pIC50: −log10 of the molar value. Structures can show the parent of a compound that is named as a salt.

target: MCH receptor (Homo sapiens, UniProt Q99705); assay: High throughput functional screening FLIPR/FDSS6000 (intracellular Ca2+ evoked by MCH); type: cell-based; details: FLIPR/FDSS, antagonist activity vs 50 nM MCH; class by percent of control at 10^−7 M or IC50; table after the classification; read-out: class
In short: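 For antagonist testing, compound-treated cells (30 min, 37 °C) were stimulated with 50 nM MCH and intracellular Ca2+ followed by Fluo4 fluorescence on FLIPR/FDSS6000. Receptor was a constitutively active, non-endogenous MCH receptor; dye loading 4 μM Fluo4-AM, 1 h, 37 °C.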

Row | Structure (SMILES) | pIC50
1 | Cc1ccc(Oc2ncccc2C(=O)N[C@H]2CC[C@@H](Nc3cc(C)c4ccccc4n3)CC2)cc1 [Example 3092, N-[cis-4-(4-Methyl-quinolin-2-ylamino)-cyclohexyl]-2-p-tolyloxy-nicotinamide hydrochloride] | > 7.30
2 | Cc1cc(N[C@H]2CC[C@@H](NC(=O)c3cccnc3Oc3ccc(Cl)cc3)CC2)nc2ccccc12 [Example 3093, 2-(4-Chloro-phenoxy)-N-[cis-4-(4-methyl-quinolin-2-ylamino)-cyclohexyl]-nicotinamide hydrochloride] | > 7.30
3 | Cc1cc(N[C@H]2CC[C@@H](NC(=O)c3cccnc3Oc3ccc(Br)cc3)CC2)nc2ccccc12 [Example 3094, 2-(4-Bromo-phenoxy)-N-[cis-4-(4-methyl-quinolin-2-ylamino)-cyclohexyl]-nicotinamide hydrochloride] | > 7.30
4 | COc1ccc(Oc2ncccc2C(=O)N[C@H]2CC[C@@H](Nc3cc(C)c4ccccc4n3)CC2)cc1 [Example 3095, 2-(4-Methoxy-phenoxy)-N-[cis-4-(4-methyl-quinolin-2-ylamino)-cyclohexyl]-nicotinamide hydrochloride] | > 7.30
5 | Cc1cc(N[C@H]2CC[C@@H](NC(=O)c3cccnc3Oc3ccc(F)c(Cl)c3)CC2)nc2ccccc12 [Example 3096, 2-(3-Chloro-4-fluoro-phenoxy)-N-[cis-4-(4-methyl-quinolin-2-ylamino)-cyclohexyl]-nicotinamide hydrochloride] | > 7.30
6 | Cc1cccc(Oc2ncccc2C(=O)N[C@H]2CC[C@@H](Nc3cc(C)c4ccccc4n3)CC2)c1 [Example 3097, N-[cis-4-(4-Methylquinolin-2-ylamino)-cyclohexyl]-2-m-tolyloxy-nicotinamide hydrochloride] | > 7.30
7 | COc1cccc(OCC(=O)N[C@H]2CC[C@@H](Nc3cc(C)c4ccccc4n3)CC2)c1 [Example 3098, 2-(3-Methoxy-phenoxy)-N-[cis-4-(4-methyl-quinolin-2-ylamino)-cyclohexyl]-acetamide hydrochloride] | > 7.30
8 | Cc1cc(N[C@H]2CC[C@@H](NC(=O)COc3cccc(Cl)c3)CC2)nc2ccccc12 [Example 3099, 2-(3-Chloro-phenoxy)-N-[cis-4-(4-methyl-quinolin-2-ylamino)-cyclohexyl]-acetamide hydrochloride] | > 7.30
9 | Cc1cc(N[C@H]2CC[C@@H](NC(=O)COc3ccc(F)c(Cl)c3)CC2)nc2ccccc12 [Example 3100, 2-(3-Chloro-4-fluoro-phenoxy)-N-[cis-4-(4-methyl-quinolin-2-ylamino)-cyclohexyl]-acetamide hydrochloride] | > 7.30
10 | Cc1cc(N[C@H]2CC[C@@H](NC(=O)COc3ccc(Cl)c(Cl)c3)CC2)nc2ccccc12 [Example 3101, 2-(3,4-Dichloro-phenoxy)-N-[cis-4-(4-methyl-quinolin-2-ylamino)-cyclohexyl]-acetamide hydrochloride] | > 7.30
11 | Cc1cc(N[C@H]2CC[C@@H](NC(=O)CNc3ccc(Cl)c(Cl)c3)CC2)nc2ccccc12 [Example 3103, 2-(3,4-Dichloro-phenylamino)-N-[cis-4-(4-methyl-quinolin-2-ylamino)-cyclohexyl]-acetamide dihydrochloride] | 6.70 to 7.30
12 | Cc1cc(N[C@H]2CC[C@@H](CNC(=O)c3ccc(F)c(F)c3)CC2)nc2ccccc12 [Example 3104, 3,4-Difluoro-N-[cis-4-(4-methyl-quinolin-2-ylamino)-cyclohexylmethyl]-benzamide hydrochloride] | 6.70 to 7.30
13 | Cc1cc(N[C@H]2CC[C@@H](CNC(=O)c3cccnc3Oc3ccccc3)CC2)nc2ccccc12 [Example 3105, N-[cis-4-(4-Methylquinolin-2-ylamino)-cyclohexylmethyl]-2-phenoxy-nicotinamide hydrochloride] | 6.70 to 7.30
14 | Cc1cc(N[C@H]2CC[C@@H](CNC(=O)Nc3cccc(Cl)c3Cl)CC2)nc2ccccc12 [Example 3106, 1-(2,3-Dichloro-phenyl)-3-[cis-4-(4-methyl-quinolin-2-ylamino)-cyclohexylmethyl]-urea hydrochloride] | > 7.30
